Consider 15 compounds from patent US20210403435A1, “HERBICIDAL COMPOUNDS” (SYNGENTA CROP PROTECTION AG, priority 2018, published 2021).

Assay in all cases: Post-emergence efficacy, glasshouse, evaluated after 13 days
What all share (assay type): in vivo

Assay [1] has as its system Amaranthus palmeri (AMAPA). The settings on record: Amaranthus palmeri, 312 h; post-emergence application, 500 g/Ha, evaluated after 13 days; read-out: Control of weed species AMAPA (100=total damage to plant; 0=no damage to plant). The essentials: (§1)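 Glasshouse post-emergence test: 14-day plants sprayed, then maintained at 24/16 °C day/night, 14 h photoperiod, 65% humidity. Evaluation at day 13 uses a percentage damage scale (100 = plant fully damaged).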

Assay [2] concerns Chenopodium album (CHEAL). The settings on record: Chenopodium album, 312 h; post-emergence application, 500 g/Ha, evaluated after 13 days; read-out: Control of weed species CHEAL (100=total damage to plant; 0=no damage to plant). The procedure, abridged:
as §1

The test system of assay [3] is Digitaria sanguinalis (DIGSA). Conditions: Digitaria sanguinalis, 312 h; post-emergence application, 500 g/Ha, evaluated after 13 days; read-out: Control of weed species DIGSA (100=total damage to plant; 0=no damage to plant). The essentials:
as §1

Assay [4] deals with Echinochloa crus-galli (ECHCG). The settings on record: Echinochloa crus-galli, 312 h; post-emergence application, 500 g/Ha, evaluated after 13 days; read-out: Control of weed species ECHCG (100=total damage to plant; 0=no damage to plant). The procedure, abridged: as §1
The subject of the next assay is Eleusine indica (ELEIN). The settings on record: Eleusine indica, 312 h; post-emergence application, 500 g/Ha, evaluated after 13 days; read-out: Control of weed species ELEIN (100=total damage to plant; 0=no damage to plant). The essentials:
as §1

Assay [5] deals with Euphorbia heterophylla (EPHHL). Conditions: Euphorbia heterophylla, 312 h; post-emergence application, 500 g/Ha, evaluated after 13 days; read-out: Control of weed species EPHHL (100=total damage to plant; 0=no damage to plant). The essentials: as §1
For assay [6], the system named is Ipomoea hederacea (IPOHE). Conditions: Ipomoea hederacea, 312 h; post-emergence application, 500 g/Ha, evaluated after 13 days; read-out: Control of weed species IPOHE (100=total damage to plant; 0=no damage to plant). The procedure, abridged: as §1
The subject of a further assay is Lolium perenne (LOLPE). The settings on record: Lolium perenne, 312 h; post-emergence application, 500 g/Ha, evaluated after 13 days; read-out: Control of weed species LOLPE (100=total damage to plant; 0=no damage to plant). The essentials:
as §1

The next assay deals with Setaria faberi (SETFA). The settings on record: Setaria faberi, 312 h; post-emergence application, 500 g/Ha, evaluated after 13 days; read-out: Control of weed species SETFA (100=total damage to plant; 0=no damage to plant). The procedure, abridged: as §1

With `O=C(O)CC[n+]1ccc(C(=O)NC2CC2(F)F)cn1` (stereo not drawn) [Compound A95], the pest or weed control at 500 g/ha in assay [1] is 100%; in assay [2] it was 100%; in assay [3], 100%; in [4] it was 80%; with Eleusine indica (ELEIN), 100%; in assay [5], 100%. Moreover, the pest or weed control at 500 g/ha in assay [6] worked out at 60%; with Lolium perenne (LOLPE), 60%; with Setaria faberi (SETFA) it was 100%.

Consider `CC(C)N(C)C(=O)c1cc[n+](CCC(=O)O)nc1` [Compound A34], for which the pest or weed control at 500 g/ha in [1] came out at 100%; in [2], 40%; in [3], 70%; in assay [4], 30%; in the assay with Eleusine indica (ELEIN) it was 20%; in assay [5] it was 70%. Also, the pest or weed control at 500 g/ha was 20% in [6], 30% in the assay with Lolium perenne (LOLPE) and 70% with Setaria faberi (SETFA).

`COCCNC(=O)c1cc[n+](CCCOS(=O)(=O)[O-])nc1` [Compound A138]: the pest or weed control at 500 g/ha in [1] was found to be 30%; in assay [2], 70%; in assay [3], 70%; in assay [4], 30%; in the assay with Eleusine indica (ELEIN), 60%; in assay [5], 60%. The pest or weed control at 500 g/ha in assay [6] stood at 60%; in the assay on Lolium perenne (LOLPE) it was 60%; with Setaria faberi (SETFA) it was 80%.

On to `CN1CCN(C(=O)c2cc[n+](CCC(=O)O)nc2)CC1` [Compound A133], for which the pest or weed control at 500 g/ha came out at 20% in [1]; 10% in [2]; 90% in assay [3]; 60% in [4]; 50% in the assay on Eleusine indica (ELEIN); 20% in [5]. Also, the results for the pest or weed control at 500 g/ha (in assay [6]; with Lolium perenne (LOLPE); with Setaria faberi (SETFA)) were 10%, 0% and 70%, respectively.

As to `O=C(O)CC[n+]1ccc(C(=O)NCC(F)(F)F)cn1` [Compound A47], the pest or weed control at 500 g/ha in assay [1] amounted to 100%; in assay [2], 90%; in assay [3], 100%; in [4] it was 100%; with Eleusine indica (ELEIN), 20%; in [5], 100%. Also, the results for the pest or weed control at 500 g/ha (in [6]; in the assay with Lolium perenne (LOLPE); in the assay with Setaria faberi (SETFA)) were 90%, 30% and 90%, respectively.

For `CCNC(=O)c1cc[n+](CCCS(=O)(=O)[O-])nc1` [Compound A76], the pest or weed control at 500 g/ha was 40% in assay [1]; 70% in assay [2]; 70% in [3]; 30% in [4]; 60% in the assay with Eleusine indica (ELEIN); 100% in [5]. Besides, the pest or weed control at 500 g/ha turned out to be 30% in [6], 70% in the assay on Lolium perenne (LOLPE) and 30% with Setaria faberi (SETFA).

On to `O=C(c1cc[n+](CCS(=O)(=O)[O-])nc1)N1CCCCC1` [Compound A27], for which the pest or weed control at 500 g/ha in assay [1] was determined as 70%; in assay [2] it was 40%; in assay [3] it was 40%; in assay [4], 40%; in the assay on Eleusine indica (ELEIN) it was 10%; in assay [5], 70%. In addition, the pest or weed control at 500 g/ha was 30% in assay [6], 30% with Lolium perenne (LOLPE) and 40% in the assay with Setaria faberi (SETFA).

As for `CC(C)NC(=O)c1cc[n+](CCS(=O)(=O)O)nc1` [Compound A5], the pest or weed control at 500 g/ha in [1] turned out to be 90%; in assay [2] it was 70%; in [3], 50%; in assay [4] it was 60%; in the assay on Eleusine indica (ELEIN), 40%; in [5], 30%. Besides, the pest or weed control at 500 g/ha in assay [6] was determined as 60%; in the assay on Lolium perenne (LOLPE), 50%; with Setaria faberi (SETFA), 40%.

In the case of `CC(CS(C)(=O)=O)NC(=O)c1cc[n+](CCC(=O)O)nc1` (stereo not drawn) [Compound A122], the pest or weed control at 500 g/ha in assay [1] was 100%; in [2] it was 90%; in assay [3], 100%; in assay [4], 90%; with Eleusine indica (ELEIN), 70%; in [5], 70%. The pest or weed control at 500 g/ha (in assay [6]; in the assay with Lolium perenne (LOLPE); in the assay with Setaria faberi (SETFA)) was 60% throughout.

As to `CC1(NC(=O)c2cc[n+](CCNS(=O)(=O)[O-])nc2)CC1` [Compound A99], the pest or weed control at 500 g/ha in assay [1] worked out at 50%; in assay [2], 40%; in assay [3] it was 100%; in assay [4] it was 60%; with Eleusine indica (ELEIN), 70%; in assay [5], 40%. Besides, the pest or weed control at 500 g/ha is 30% in [6], 40% in the assay on Lolium perenne (LOLPE) and 90% in the assay with Setaria faberi (SETFA).

On to `CNC(=O)c1cn[n+](CCC(=O)O)cc1C` [Compound A53], for which the pest or weed control at 500 g/ha in assay [1] is 90%; in assay [2], 70%; in [3] it was 80%; in [4], 70%; with Eleusine indica (ELEIN), 40%; in assay [5] it was 60%. Also, the pest or weed control at 500 g/ha in [6] came to 50%; with Lolium perenne (LOLPE), 20%; in the assay on Setaria faberi (SETFA) it was 90%.

Turning to `CC(C)CNC(=O)c1cc[n+](CCC(=O)O)nc1` [Compound A35], the pest or weed control at 500 g/ha in assay [1] was found to be 100%; in assay [2], 90%; in assay [3], 80%; in assay [4] it was 60%; in the assay with Eleusine indica (ELEIN), 100%; in [5], 100%. Further, the pest or weed control at 500 g/ha in assay [6] came to 50%; in the assay on Lolium perenne (LOLPE) it was 70%; in the assay on Setaria faberi (SETFA), 90%.

On to `CN(C)S(=O)(=O)CCNC(=O)c1cc[n+](CCC(=O)O)nc1` [Compound A110], for which the pest or weed control at 500 g/ha in [1] is 90%; in [2], 50%; in assay [3], 100%; in [4], 50%; in the assay with Eleusine indica (ELEIN) it was 30%; in [5], 60%. The pest or weed control at 500 g/ha was found to be 20% in assay [6], 60% in the assay on Lolium perenne (LOLPE) and 90% with Setaria faberi (SETFA).

On to `CC(C)N(C(=O)c1cc[n+](CCS(=O)(=O)O)nc1)C(C)C` [Compound A14], for which the pest or weed control at 500 g/ha amounted to 100% in assay [1]; 70% in [2]; 30% in assay [3]; 10% in assay [4]; 10% in the assay with Eleusine indica (ELEIN); 50% in [5]. The pest or weed control at 500 g/ha in assay [6] turned out to be 30%; with Lolium perenne (LOLPE), 0%; with Setaria faberi (SETFA) it was 10%.

With `CNC(=O)c1cn[n+](CCS(=O)(=O)[O-])cc1-c1ccccc1` [Compound A39], the pest or weed control at 500 g/ha in assay [1] was 70%; in assay [2], 70%; in assay [3], 40%; in [4] it was 40%; in the assay on Eleusine indica (ELEIN), 50%; in assay [5] it was 50%. Moreover, the pest or weed control at 500 g/ha in assay [6] stood at 20%; in the assay on Lolium perenne (LOLPE), 10%; in the assay with Setaria faberi (SETFA), 30%.
